Reference: patent publication US20230139445A1, “BACTERIAL CELLS WITH IMPROVED TOLERANCE TO DIACIDS” (priority 2016, published 2023)
Read-outs that look alike come from different tables or passages of the source.

What was measured:
[1] = test system: Escherichia coli K-12 MG1655 and evolved isolates; type: cell-based; conditions: 38 g/L sebacic acid
Experimental: Five colonies from wild-type K-12 MG1655 and 10 individual colonies deriving from each population were inoculated into 300 μL M9+1% glucose in 96 well deepwell plates and incubated in a 300 rpm plate shaker at 37° C. The next day, cells were diluted 10× in M9+1% glucose and 30 μL was transferred into clear-bottomed 96 well half-deepwell plates (with rectangular wells) containing M9+1% glucose and M9+1% glucose+52.78 g/L glutaric acid or 55.56 g/L adipic acid, such that the final concentration of glutaric acid or adipic acid was 47.5 g/L or 50 g/L, respectively. In addition, cryogenic glycerol stocks of the overnight culture were saved in a 96 well plate format. Half deepwell plates were incubated at 37° C. with 225 rpm shaking in a Growth Profiler (Enzyscreen), with optical scans of the plates taken at 15 minute intervals. Green pixel values integrated over a 1 mm diameter circular area in each well were converted to OD600 values using a previously determined calibration between OD600 and green pixel values.
Additionally, each evolved isolate was tested for cross-tolerance toward other dicarboxylic acids of interest. […] All diacids tested were either the neutral sodium salts, or the free diacid was neutralized with sodium hydroxide to pH 7.0 for testing.

[2] = test system: Escherichia coli K-12 MG1655; assay: Screening for tolerance in wild-type cells: growth in varying concentrations of neutralized diacid, Biolector; type: cell-based; conditions: for tlag (lag time), mean / μ (growth rate), mean: neutralized with sodium hydroxide
Experimental: Escherichia coli K-12 MG1655 was grown overnight in M9 minimal medium+1% glucose and subcultured the following morning to an initial OD600 of 0.05 in M9+1% glucose. Cells were grown to mid-exponential phase (OD600 0.7-1.0) and were back-diluted with fresh medium to an OD600 of 0.7. The diluted cells were used to inoculate M9+1% glucose containing varying concentrations of glutaric acid or adipic acid which were neutralized to pH 7.0 with sodium hydroxide, and growth was measured in FlowerPlates in a Biolector microbioreactor system (m2p-labs) at 37° C. with 1000 rpm shaking. The culture volume in each well was 1.4 mL.

## O=C(O)CCCCCCCCC(=O)O [sebacic acid]
[1]; strain ADIP1-1
  growth rate μ (mean): 0.244 h⁻¹
  lag time tlag (mean): 21.6 h
[1]; strain ADIP1-9
  growth rate μ (mean): 0.248 h⁻¹
  lag time tlag (mean): 17.8 h
[1]; strain ADIP2-5
  growth rate μ (mean): 0.315 h⁻¹
  lag time tlag (mean): 13.5 h
[1]; strain ADIP2-6
  growth rate μ (mean): 0.319 h⁻¹
  lag time tlag (mean): 12.9 h
[1]; strain ADIP2-10
  growth rate μ (mean): 0.290 h⁻¹
  lag time tlag (mean): 13.4 h
[1]; strain ADIP3-2
  growth rate μ (mean): 0.254 h⁻¹
  lag time tlag (mean): 17.6 h
[1]; strain ADIP3-4
  growth rate μ (mean): 0.262 h⁻¹
  lag time tlag (mean): 17.1 h
[1]; strain ADIP3-8
  growth rate μ (mean): 0.253 h⁻¹
  lag time tlag (mean): 19.8 h
[1]; strain ADIP4-1
  growth rate μ (mean): 0.308 h⁻¹
  lag time tlag (mean): 13.1 h
[1]; strain ADIP4-8
  growth rate μ (mean): 0.289 h⁻¹
  lag time tlag (mean): 12.8 h
[1]; strain ADIP5-2
  growth rate μ (mean): 0.288 h⁻¹
  lag time tlag (mean): 15.3 h
[1]; strain ADIP5-6
  growth rate μ (mean): 0.273 h⁻¹
  lag time tlag (mean): 20.7 h
[1]; strain ADIP6-3
  growth rate μ (mean): 0.268 h⁻¹
  lag time tlag (mean): 17.9 h
[1]; strain ADIP6-9
  growth rate μ (mean): 0.181 h⁻¹
  lag time tlag (mean): 23.1 h
[1]; strain ADIP6-10
  growth rate μ (mean): 0.267 h⁻¹
  lag time tlag (mean): 15.3 h
[1]; strain ADIP7-2
  growth rate μ (mean): 0.356 h⁻¹
  lag time tlag (mean): 11.1 h
[1]; strain ADIP7-5
  growth rate μ (mean): 0.353 h⁻¹
  lag time tlag (mean): 12.0 h
[1]; strain ADIP8-3
  growth rate μ (mean): 0.171 h⁻¹
  lag time tlag (mean): 28.9 h
[1]; strain ADIP8-7
  growth rate μ (mean): 0.157 h⁻¹
  lag time tlag (mean): 30.9 h
[1]; strain ADIP8-10
  growth rate μ (mean): 0.165 h⁻¹
  lag time tlag (mean): 30.0 h
[1]; strain GLUT1-3
  growth rate μ (mean): 0.074 h⁻¹
  lag time tlag (mean): 34.9 h
[1]; strain GLUT1-9
  growth rate μ (mean): 0.043 h⁻¹
  lag time tlag (mean): 44.7 h
[1]; strain GLUT1-10
  growth rate μ (mean): 0.278 h⁻¹
  lag time tlag (mean): 20.6 h
[1]; strain GLUT2-1
  growth rate μ (mean): 0.153 h⁻¹
  lag time tlag (mean): 21.7 h
[1]; strain GLUT2-9
  growth rate μ (mean): 0.282 h⁻¹
  lag time tlag (mean): 12.5 h
[1]; strain GLUT2-10
  growth rate μ (mean): 0.093 h⁻¹
  lag time tlag (mean): 29.8 h
[1]; strain GLUT3-5
  growth rate μ (mean): 0.106 h⁻¹
  lag time tlag (mean): 20.0 h
[1]; strain GLUT3-7
  growth rate μ (mean): 0.068 h⁻¹
  lag time tlag (mean): 6.4 h
[1]; strain GLUT3-9
  growth rate μ (mean): 0.158 h⁻¹
  lag time tlag (mean): 18.9 h
[1]; strain GLUT4-1
  growth rate μ (mean): 0.266 h⁻¹
  lag time tlag (mean): 32.9 h
[1]; strain GLUT4-4
  growth rate μ (mean): 0.265 h⁻¹
  lag time tlag (mean): 34.2 h
[1]; strain GLUT4-10
  growth rate μ (mean): 0.113 h⁻¹
  lag time tlag (mean): 20.1 h
[1]; strain GLUT5-4
  growth rate μ (mean): 0.183 h⁻¹
  lag time tlag (mean): 37.7 h
[1]; strain GLUT5-5
  growth rate μ (mean): 0.117 h⁻¹
  lag time tlag (mean): 54.9 h
[1]; strain GLUT5-9
  growth rate μ (mean): 0.143 h⁻¹
  lag time tlag (mean): 58.2 h
[1]; strain GLUT6-4
  growth rate μ (mean): 0.085 h⁻¹
  lag time tlag (mean): 26.4 h
[1]; strain GLUT6-5
  growth rate μ (mean): 0.123 h⁻¹
  lag time tlag (mean): 21.6 h
[1]; strain GLUT6-10
  growth rate μ (mean): 0.132 h⁻¹
  lag time tlag (mean): 26.2 h
[1]; strain GLUT7-2
  growth rate μ (mean): 0.173 h⁻¹
  lag time tlag (mean): 17.5 h
[1]; strain GLUT7-6
  growth rate μ (mean): 0.141 h⁻¹
  lag time tlag (mean): 18.9 h
[1]; strain GLUT7-7
  growth rate μ (mean): 0.112 h⁻¹
  lag time tlag (mean): 20.0 h
[1]; strain GLUT8-5
  growth rate μ (mean): 0.300 h⁻¹
  lag time tlag (mean): 21.4 h
[1]; strain GLUT8-6
  growth rate μ (mean): 0.464 h⁻¹
  lag time tlag (mean): 13.7 h
[1]; strain GLUT8-9
  growth rate μ (mean): 0.471 h⁻¹
  lag time tlag (mean): 14.5 h
[1]; strain MG1655 (Table 28)
  growth rate μ (mean): 0.167 h⁻¹
  lag time tlag (mean): 26.9 h
[1]; strain MG1655 (Table 29)
  growth rate μ (mean): 0.135 h⁻¹
  lag time tlag (mean): 28.2 h
[2]; 10 g/L
  tlag (lag time), mean: 1.9 h
[2]; 10 g/L, M9+1% glucose, 37° C
  μ (growth rate), mean: 0.707 h⁻¹
[2]; 20 g/L
  tlag (lag time), mean: 2.7 h
  μ (growth rate), mean: 0.578 h⁻¹
[2]; 25 g/L
  tlag (lag time), mean: 3.3 h
  μ (growth rate), mean: 0.413 h⁻¹
[2]; 30 g/L
  tlag (lag time), mean: 5.7 h
  μ (growth rate), mean: 0.386 h⁻¹
[2]; 35 g/L
  tlag (lag time), mean: 10.8 h
  μ (growth rate), mean: 0.306 h⁻¹
[2]; 40 g/L
  tlag (lag time), mean: 22.5 h
  μ (growth rate), mean: 0.222 h⁻¹
[2]; 45 g/L
  tlag (lag time), mean: 50.6 h
  μ (growth rate), mean: 0.051 h⁻¹
[2]; above 40 g/L concentration
  growth of K-12 MG1655: nearly no growth detected
